Results: patent US20060063839A1, “Inhibitors of decrease in body temperature” (AJINOMOTO CO., INC., priority 2003, published 2006)

Legend:
Format in all cases: in vivo, rat
[1] = tested on: rats under propofol anesthesia; assay: Measurement 1 of inhibiting effect of decrease in body temperature (rectal temperature, propofol anesthesia); conditions: for variation of body temperature in 3 hours after administering the anesthesia solution to that before administration: average; for inhibiting effect of decrease in body temperature (core temperature), in words: summary of Table 2
Procedure: A catheter was inserted into an external jugular vein of each of rats used in the evaluation in advance and a tip of the catheter was […] from their backs and locked with heparin. […] Then, 42 mL/kg thereof were continuously administered for 1 hour simultaneously with the start of administration of the anesthesia agent. Numbers of each group were set to 4 to 6. As for the administration of the anesthesia agent, 15 mg/kg thereof was intravenously administered through the catheter with bolus method at the beginning. […] As for the measurement of the body temperature, a former value was measured with a rectal thermometer before administering amino acid solutions, and values were measured at 30-minute intervals from the start of administration of the anesthesia agent until 3 hours after the end thereof. The measurement results were calculated as variations (value before administration-value after administration) of values in 3 hours after administering the anesthesia solution to those before administration and represented with average ± standard deviation. As for a statistical test, comparison between two groups with the normal saline solution was conducted using student t-test.

[2] = tested on: rats under propofol anesthesia; assay: Measurement 2 of inhibiting effect of decrease in body temperature: timing of valine administration (Groups A to D)
Procedure: Examination was conducted on whether differences of the inhibiting effect of decrease in body temperature of valine were shown depending on difference of timings of administration (following A to D). A catheter was inserted into an outward jugular vein of each of rats (7 to 8 weeks age) used in the evaluation in advance and a tip of the catheter was exserted from their backs and locked with heparin. The rats were recovered for a few days in the status quo. Valine was administered through the catheter with the following four methods:
A: for 2 hours before the start of administration of propofol
B: for 1 hour before the start of administration of propofol+1 hour after the start of administration of propofol
C: for 2 hours simultaneously with the start of administration of propofol
D: for 2 hours starting from 1 hour after the start of administration of propofol. 105 mg/kg of valine containing 10.5 mL/kg of 1% valine solution was administered to Group A eight times at 15-minute intervals. 105 mg/kg of valine containing 10.5 mL/kg of 1% valine solution was administered to Group B four times at 15-minute intervals and then continuously administered for 1 hour in 420 mg/kg/hr containing 42 mL/kg of 1% valine solution. Valine was continuously administered to Groups C and D for 2 hours in 420 mg/kg/hr containing 42 mL/kg of 1% valine solution. Each group (n=8 to 9) was administered the same total dose of valine. 15 mg/kg of a propofol anesthesia agent was administered through the catheter at the beginning and, after induction of anesthesia, it was continuously administered for 3 hours in 33.75 mg/kg/hr.

[3] = tested on: rats with surgical invasion under propofol anesthesia; assay: Effect on recovery from operative invasion (abdominal surgery under propofol anesthesia; body temperature and survival)
Procedure: A catheter was inserted into an external jugular vein of each of rats (7 weeks age) used in the evaluation in advance and a tip of the catheter was exserted from their backs and locked with heparin. The rats were recovered for a few days in the status quo. 105 mg/kg of valine (5.25 mL/kg of 2 W/V % of valine solution) was administered through the catheter to a valine-administered group four times at 15-minute intervals from 60 minutes before the start of administration of a propofol anesthesia agent. Then, valine was continuously administered for 5 hours in 420 mg/kg/hr (21 mL/kg of 2 W/V % valine solution) simultaneously with the start of administration of the propofol anesthesia agent. A normal saline solution was administered instead of a valine solution to an objective group. As for the administration of the propofol anesthesia agent, 15 mg/kg thereof was intravenously administered through the catheter with bolus method at the beginning. Soon after that, the agent was started to be continuously administered in 45 mg/kg/hr. 1 hour later, the administration speed was changed to 33.75 mg/kg/hr and continuous administration was conducted for 5 hours. Numbers of each group were set to 8. As for surgical invasion, abdominals of the rats were opened after the bolus anesthesia, their appendixes were exteriorized from their abdominal cavities and exposed in the air for 30 minutes. Then, their appendixes were put back to their abdominal cavities and sutured. As for the measurement of the body temperatures, a former value was measured with a rectal thermometer before administering the amino acids, and the value was measured again in 3 hours after the administration of propofol. The results were shown as the decreased temperature to Pre value. Survival rates were calculated from number of survivors in 24 hours from the start of the experiment.

[4] = tested on: peripheral mononuclear blood cells (PBMC) TNF-α production; assay: Effect on production of peripheral mononuclear blood cell TNF-α (PBMC taken after anesthesia and celiotomy, LPS stimulation, ELISA); conditions: PBMC incubated with 1 μg/mL LPS for 24 hours; valine 4 x 105 mg/kg then 420 mg/kg/hr for 1 hour; n=6
Procedure: (§1) The examination was practiced with three groups of a normal group, a valine-administered group and an objective group. A catheter was inserted into an external jugular vein of each of rats (7 to 8 weeks age) used in the evaluation in advance and a tip of the catheter was exserted from their backs and locked with heparin. The rats were recovered for a few days in the status quo. 105 mg/kg of valine (5.25 mL/kg of 2 W/V % of valine solution) was administered through the inserted catheter to the valine-administered group (n=6) four times at 15-minute intervals from 60 minutes before the start of administration of a propofol anesthesia agent. Then, valine was continuously administered for 1 hour in 420 mg/kg/hr (21 mL/kg of 2 W/V % valine solution) simultaneously with the start of administration of the propofol anesthesia agent. A normal saline solution was administered instead of valine to the objective group (n=6). 15 mg/kg of the propofol anesthesia agent was introduced to be administered through the catheter at the beginning, and continuously administered for 3 hours in 33.75 mg/kg/hr. The celiotomy invasion was conducted by opening the abodominals of the rats simultaneously with the administration of the anesthesia, exteriorizing their appendixes from the abdominal cavities, putting them back again at once and suturing the abdominals. The catheter was not inserted to the normal group. […]

[5] = tested on: rats with celiotomy invasion under propofol anesthesia; assay: Body temperature at the end of anesthesia in the celiotomy invasion experiment; conditions: valine-administered group, n=6
Procedure: as §1

[6] = 0.1% solution i.v. (4 x 10.5 mL/kg before, 42 mL/kg during 1 h of propofol)
[7] = 1% solution i.v. (4 x 10.5 mL/kg before, 42 mL/kg during 1 h of propofol)
[8] = Group A: valine for 2 hours before the start of propofol
[9] = Group B: valine for 1 hour before + 1 hour after the start of propofol
[10] = Group C: valine for 2 hours simultaneously with the start of propofol
[11] = Group D: valine for 2 hours starting 1 hour after the start of propofol

| SMILES | variation of body temperature in 3 hours after administering the anesthesia solution to that before administration [1, 6] | variation of body temperature in 3 hours after administering the anesthesia solution to that before administration [1, 7] | inhibiting effect of decrease in body temperature (core temperature), in words [1] | decrease in body temperature from the time before administration until the end of the anesthesia [2, 8] | increase in body temperature from the end of administration of the anesthesia until 1 hour after [2, 8] | decrease in body temperature from the time before administration until the end of the anesthesia [2, 9] | increase in body temperature from the end of administration of the anesthesia until 1 hour after [2, 9] | decrease in body temperature from the time before administration until the end of the anesthesia [2, 10] | increase in body temperature from the end of administration of the anesthesia until 1 hour after [2, 10] | decrease in body temperature from the time before administration until the end of the anesthesia [2, 11] | increase in body temperature from the end of administration of the anesthesia until 1 hour after [2, 11] | inhibiting effect of decrease in body temperature, in words [2, 11] | inhibition of the decrease in body temperature versus the objective (saline) group ([3]; 3 hours after administration of propofol) | decrease in body temperature to Pre value ([3]; 3 hours after administration of propofol, valine 4 x 105 mg/kg then 420 mg/kg/hr for 5 hours, n=8) | survival rate after one day ([3]; 24 hours from the start of the experiment, n=8) | production quantity of TNF-α [4] | body temperature at the end of the administration of the anesthesia [5] |
| --- | --- | --- | --- | --- | --- | --- | --- | --- | --- | --- | --- | --- | --- | --- | --- | --- | --- |
| N[C@@H](CC(=O)O)C(=O)O [Asparatic Acid, asparatic acid] | −6.4 °C | −4.5 °C | inhibiting effect of decrease in body temperature (core temperature) was shown | – | – | – | – | – | – | – | – | – | – | – | – | – | – |
| N[C@@H](CS)C(=O)O [Cystein, cystein] | −6.3 °C | −4.8 °C | inhibiting effect of decrease in body temperature (core temperature) was shown | – | – | – | – | – | – | – | – | – | – | – | – | – | – |
| NCC(=O)O [Glycine, glycine] | −6.4 °C | −6.1 °C | inhibiting effect of decrease in body temperature (core temperature) was shown | – | – | – | – | – | – | – | – | – | – | – | – | – | – |
| CC(C)[C@H](N)C(=O)O [Valine, valine] | −4.8 °C | −4.0 °C | inhibiting effect of decrease in body temperature (core temperature) was shown | 6.1±1.9 °C | 1.1±0.5 °C | 4.3±1.2 °C | 2.0±1.2 °C | 6.1±1.4 °C | 2.0±0.9 °C | 6.9±1.0 °C | 1.0±0.6 °C | inhibiting effect of decrease in body temperature was not shown | 1.19 °C | 7.83±0.87 °C | 87.5% | 1389.8±415.8 pg/1×10^6 cells | 31.2±0.8 °C |
